Measurements published in the NIST ThermoML archive (doi:10.1016/j.jct.2016.10.033).

Assay: xn = mol fraction of the nth substance listed
Settings: 103 kPa, Liquid, Vibrating tube method

C=C[Si](OC)(OC)OC [trimethoxy(vinyl)silane] + CO[Si](C)(OC)c1ccccc1
mass density [kg/m3]
Settings	298.15 K	303.15 K	308.15 K	313.15 K	318.15 K
x2 = 0	965.69	960.02	954.26	948.47	942.63
x2 = 0.05	968.08	962.41	956.71	950.99	945.24
x2 = 0.1	970.32	964.72	959.1	953.45	947.77
x2 = 0.1499	972.48	966.94	961.39	955.8	950.2
x2 = 0.2	974.57	969.11	963.63	958.1	952.57
x2 = 0.2501	976.61	971.22	965.8	960.36	954.9
x2 = 0.2999	978.59	973.25	967.91	962.52	957.14
x2 = 0.35	980.49	975.22	969.93	964.61	959.27
x2 = 0.4001	982.35	977.14	971.9	966.65	961.37
x2 = 0.4501	984.15	978.99	973.81	968.61	963.4
x2 = 0.5	985.89	980.79	975.67	970.52	965.37
x2 = 0.5499	987.58	982.53	977.46	972.37	967.27
x2 = 0.6	989.22	984.22	979.2	974.17	969.12
x2 = 0.6499	990.82	985.86	980.89	975.91	970.93
x2 = 0.7	992.37	987.46	982.54	977.6	972.65
x2 = 0.75	993.89	989.02	984.15	979.26	974.36
x2 = 0.8001	995.35	990.53	985.7	980.86	976.01
x2 = 0.8498	996.76	991.99	987.21	982.41	977.61
x2 = 0.8999	998.15	993.42	988.68	983.93	979.18
x2 = 0.9499	999.49	994.81	990.11	985.41	980.69
